One data set has as its target T1, human RXFP1 (Homo sapiens, UniProt Q9HBX9).
T1 sequence (Q9HBX9 1-757): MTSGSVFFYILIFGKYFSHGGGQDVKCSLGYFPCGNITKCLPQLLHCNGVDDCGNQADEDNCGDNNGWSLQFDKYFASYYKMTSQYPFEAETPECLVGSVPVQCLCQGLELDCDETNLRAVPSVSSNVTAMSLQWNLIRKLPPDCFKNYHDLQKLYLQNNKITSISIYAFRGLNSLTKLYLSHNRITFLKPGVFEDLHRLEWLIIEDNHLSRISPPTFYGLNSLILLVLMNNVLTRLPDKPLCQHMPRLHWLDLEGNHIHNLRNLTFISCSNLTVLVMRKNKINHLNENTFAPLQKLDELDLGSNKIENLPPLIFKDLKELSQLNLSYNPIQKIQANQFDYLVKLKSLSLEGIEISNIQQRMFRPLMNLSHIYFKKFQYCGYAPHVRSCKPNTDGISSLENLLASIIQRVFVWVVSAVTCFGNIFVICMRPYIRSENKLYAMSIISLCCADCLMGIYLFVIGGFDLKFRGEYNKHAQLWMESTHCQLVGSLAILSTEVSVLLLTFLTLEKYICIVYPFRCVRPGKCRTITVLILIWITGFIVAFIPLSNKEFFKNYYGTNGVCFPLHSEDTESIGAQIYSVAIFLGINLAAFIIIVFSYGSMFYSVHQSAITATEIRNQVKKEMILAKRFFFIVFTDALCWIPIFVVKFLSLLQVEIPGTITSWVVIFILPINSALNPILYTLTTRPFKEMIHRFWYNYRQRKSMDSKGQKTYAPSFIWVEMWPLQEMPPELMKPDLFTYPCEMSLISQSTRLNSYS
The data set can be described thus: RXFP1 Hu cAMP (Test A). The following applies: RXFP1 Hu cAMP; for EC50: read-out: Test A EC50. It counts as cell-based. Further details: expressed in transfected cells; host or cells: Jump-In T-REx CHO-K1 cells (ThermoFisher), induced with 10 ng/ml doxycycline for 24 h. Summed up: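 Cells: CHO-K1 stably carrying human RXFP1, expressed after 24 h 10 ng/ml doxycycline; 0.5 mM IBMX final, HTRF detection after 2 h at room temperature.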

Data set [1] is described as follows: Human Hepatocyte Stability (Test D). Type of data set: in vitro ADME. The settings on record: human, cryopreserved pooled human hepatocytes (LiverPool 10-Donor), geometric mean if run multiple times. Summed up:
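Pooled 10-donor cryopreserved human hepatocytes (≥80% viable) in L-15 medium at 0.25×10^6 cells per 0.25 mL well. Compound added from 100 μM acetonitrile solution; incubated at 37 °C with shaking, acetonitrile-quenched, LC-MS analysed. Clint (μL/min/10^6 cells) from ln % parent vs time slope; geometric mean of repeat runs.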

What is called EC50 is the concentration giving half of the maximal effect. As usually defined, the hepatocyte CLint is a measure of how fast metabolising enzymes remove a compound, apart from limits set by blood flow. Higher therefore signals rapid turnover.

With `COc1cc(F)c(-c2ccc(C(=O)O)cc2)cc1C(=O)N[C@H]1[C@@H](C(=O)Nc2cccc(S(=O)(=O)C(F)(F)F)c2)[C@@H]2C=C[C@H]1C2` (single isomer, unassigned) [Example 552], on human RXFP1, the “Test A Sinf” value is recorded as 98% and the EC50 was found to be 140 nM. In addition, the intrinsic clearance (hepatocyte CLint) at 1 µM in data set [1] is 12 µL/min/1e6 cells.

As to `COc1cc(F)c(O[C@H]2CC[C@@H](C(=O)O)CC2)cc1C(=O)N[C@@H]1[C@H]2CC[C@H](C2)[C@@H]1C(=O)Nc1ccc(F)c(S(F)(F)(F)(F)F)c1` [Example 433], on human RXFP1, the “Test A Sinf” value is on record as 109% and the EC50 worked out at 5.3 nM. The same compound displayed a hepatocyte CLint at 1 µM in data set [1] of 14 µL/min/1e6 cells.

As for `COc1cc(F)c(O[C@H]2CC[C@@](C)(C(=O)O)CC2)cc1C(=O)N[C@@H]1[C@H]2CC[C@H](C2)[C@@H]1C(=O)Nc1ccc(F)c(S(F)(F)(F)(F)F)c1` [Example 353], at human RXFP1, the “Test A Sinf” value is recorded as 114% and the EC50 turned out to be 0.41 nM. The hepatocyte CLint at 1 µM in data set [1] is 21 µL/min/1e6 cells.

As for `COc1cc(F)c(O[C@H]2CC[C@@](C)(C(=O)O)CC2)cc1C(=O)N[C@@H]1[C@H]2CC[C@H](C2)[C@@H]1C(=O)Nc1cccc(S(=O)(=O)C(F)(F)F)c1` [Example 208, (1S,4s)-4-(2-Fluoro-4-methoxy-5-(((1S,2R,3S,4R)-3-((3-((trifluoromethyl)sulfonyl)phenyl)carbamoyl)bicyclo[2.2.1]heptan-2-yl)carbamoyl)phenoxy)-1-methylcyclohexane-1-carboxylic acid], on human RXFP1, the “Test A Sinf” value was 108% and the EC50 is less than 2 nM. The hepatocyte CLint at 1 µM in data set [1] is 15 µL/min/1e6 cells.

Values taken from US11667602B2, “Compounds and their use” (AstraZeneca AB, priority 2020, dated 2023).
